Measured values published in patent publication US20250127906A1, “SMALL-MOLECULE DEGRADERS OF CDK8 AND CDK19” (University of South Carolina, priority 2021, published 2025).

Molecular target: CDK8 (Homo sapiens, UniProt P49336)
Experiment: CDK8 degradation in HEK-293 cells (Western blot, normalized by GAPDH)
Type: cell-based
Parameters: endogenous in cells; host or cells: HEK-293
Details: for % CDK8 remaining: HEK-293 cells, 24 hours, tested at 1 μM
Protocol: Table 1 presents the structures of 35 different chimeras that have been synthesized, together with their effects (at 1 μM or 0.3 μM concentrations) on CDK8 degradation in HEK-293 cells. The synthesis schemes of all the compounds are described below. CDK8 degradation was measured by Western blot analysis of RIPA lysates of HEK-293cells treated with or without the test compound for 24 hours, using antibodies against CDK8 (Santa Cruz sc-1521) and housekeeping protein GAPDH (Santa Cruz sc-32233) (loading control) Protein bands on immunoblotted PVDF membranes were visualized with Western Lighting Plus ECL detection reagent (Perkin Elmer, Waltham, MA, USA) using ChemiDoc Touch™ (Bio-Rad). Image processing and densitometry analysis were performed using ImageLab software (Bio-Rad) to quantify the CDK8 protein levels (normalized by GAPDH) and evaluate the effects of compound treatment.
FIGS. 2F and 2G show the effects of different concentrations of potent Senexin C- and BI-1347-based PROTACs on CDK8 and CDK19 degradation in HEK-293cells. Based on these assays, we calculated DC50 values that correspond to PROTAC concentrations inducing degradation of CDK8 and CDK19 to the half of protein level in untreated cells. The corresponding CDK8 DC50 values were 46 nM for IA7843, 6.6 nM for IA7882 and 2.8 nM for IA7886, and CDK19 DC50 values were 1 μM for IA7843, 25 nM for IA7882 and 10 nM for IA7886.

Sequence of CDK8 (P49336 whole entry): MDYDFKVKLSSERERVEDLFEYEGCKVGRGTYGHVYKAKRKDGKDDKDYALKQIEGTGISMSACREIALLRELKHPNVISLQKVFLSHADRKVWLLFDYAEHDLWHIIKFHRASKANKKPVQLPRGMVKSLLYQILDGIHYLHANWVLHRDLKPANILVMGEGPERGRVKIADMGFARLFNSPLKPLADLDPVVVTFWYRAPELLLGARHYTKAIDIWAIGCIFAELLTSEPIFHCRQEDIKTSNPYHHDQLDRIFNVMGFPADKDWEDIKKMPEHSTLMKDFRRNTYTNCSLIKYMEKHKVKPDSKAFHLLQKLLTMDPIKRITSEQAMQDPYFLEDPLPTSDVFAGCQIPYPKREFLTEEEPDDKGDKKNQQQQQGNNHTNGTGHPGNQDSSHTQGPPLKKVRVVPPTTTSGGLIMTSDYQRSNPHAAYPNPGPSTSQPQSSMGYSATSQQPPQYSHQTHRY
Sequence of CDK8 (P24863 whole entry partner): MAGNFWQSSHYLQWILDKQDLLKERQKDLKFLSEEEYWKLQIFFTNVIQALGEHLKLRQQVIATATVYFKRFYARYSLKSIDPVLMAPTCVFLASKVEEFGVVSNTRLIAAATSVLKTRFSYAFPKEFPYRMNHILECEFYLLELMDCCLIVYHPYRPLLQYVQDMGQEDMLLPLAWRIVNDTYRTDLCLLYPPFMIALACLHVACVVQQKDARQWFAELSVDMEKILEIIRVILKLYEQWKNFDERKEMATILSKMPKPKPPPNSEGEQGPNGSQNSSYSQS

SMILES	% CDK8 remaining	induction of CDK8 degradation by single agents (HEK-293, HP8580 200 nM and 1 μM, pomalidomide 5 μM, Senexin C 5 μM)	effect of co-treatment on HP8580-mediated CDK8 degradation (HEK-293, with MG132 5 μM, pomalidomide 5 μM or Senexin C 5 μM)
CN(CCCNC(=O)CCOCCOCCOCCOCCNc1cccc2c1C(=O)N(C1CCC(=O)NC1=O)C2=O)C(=O)c1ccc(N2CCCN(c3ccnc4sc(C(N)=O)c(N)c34)CC2)cc1 (stereo not shown) [HP8553]	74%	–	–
CN(CCCNC(=O)CCOCCOCCOCCNc1cccc2c1C(=O)N(C1CCC(=O)NC1=O)C2=O)C(=O)c1ccc(N2CCCN(c3ccnc4sc(C(N)=O)c(N)c34)CC2)cc1 (stereo not shown) [HP8575, 3-amino-4-[4-[4-[3-[3-[2-[2-[2-[[2-(2,6-dioxo-3-piperidyl)-1,3-dioxo-isoindolin-4-yl]amino]ethoxy]ethoxy]ethoxy]propanoylamino]propyl-methyl-carbamoyl]phenyl]-1,4-diazepan-1-yl]thieno[2,3-b]pyridine-2-carboxamide]	77%	–	–
CN(CCCNC(=O)CCOCCOCCNc1cccc2c1C(=O)N(C1CCC(=O)NC1=O)C2=O)C(=O)c1ccc(N2CCCN(c3ccnc4sc(C(N)=O)c(N)c34)CC2)cc1 (stereo not shown) [HP8578, 3-amino-4-[4-[4-[3-[3-[2-[2-[[2-(2,6-dioxo-3-piperidyl)-1,3-dioxo-isoindolin-4-yl]amino]ethoxy]ethoxy]propanoylamino]propyl-methyl-carbamoyl]phenyl]-1,4-diazepan-1-yl]thieno[2,3-b]pyridine-2-carboxamide]	82%	–	–
N#Cc1ccc2nccc(NCCc3ccc4cc(C(=O)N5CCN(CCCNC(=O)CCOCCOCCOCCOCCNc6cccc7c6C(=O)N(C6CCC(=O)NC6=O)C7=O)CC5)ccc4c3)c2c1 (stereo not shown) [HP8579]	29%	–	–
N#Cc1ccc2nccc(NCCc3ccc4cc(C(=O)N5CCN(C(=O)CCOCCOCCOCCOCCNc6cccc7c6C(=O)N(C6CCC(=O)NC6=O)C7=O)CC5)ccc4c3)c2c1 (stereo not shown) [HP8580, 4-[2-[6-[4-[3-[2-[2-[2-[2-[[2-(2,6-dioxo-3-piperidyl)-1,3-dioxo-isoindolin-4-yl]amino]ethoxy]ethoxy]ethoxy]ethoxy]propanoyl]piperazine-1-carbonyl]-2-naphthyl]ethylamino]quinoline-6-carbonitrile]	20%	induced CDK8 degradation	reversed by proteasome inhibition with MG132 as well as by competition with pomalidomide or Senexin C
CN(CCCNC(=O)CCOCCOCCOCCOCCNc1cccc2c1C(=O)N(C1CCC(=O)NC1=O)C2=O)C(=O)c1ccc2cc(CCNc3ccnc4ccc(C#N)cc34)ccc2c1 (stereo not shown) [HP8581, 6-[2-[(6-cyano-4-quinolyl)amino]ethyl]-N-[3-[3-[2-[2-[2-[2-[[2-(2,6-dioxo-3-piperidyl)-1,3-dioxo-isoindolin-4-yl]amino]ethoxy]ethoxy]ethoxy]ethoxy]propanoylamino]propyl]-N-methyl-naphthalene-2-carboxamide]	36%	–	–
N#Cc1ccc2nccc(NCCc3ccc4cc(C(=O)N5CCN(C(=O)CCOCCOCCOCCNc6cccc7c6C(=O)N(C6CCC(=O)NC6=O)C7=O)CC5)ccc4c3)c2c1 (stereo not shown) [HV5957, 4-[2-[6-[4-[3-[2-[2-[2-[[2-(2,6-dioxo-3-piperidyl)-1,3-dioxo-isoindolin-4-yl]amino]ethoxy]ethoxy]ethoxy]propanoyl]piperazine-1-carbonyl]-2-naphthyl]ethylamino]quinoline-6-carbonitrile]	21%	–	–
N#Cc1ccc2nccc(NCCc3ccc4cc(C(=O)N5CCN(C(=O)CCOCCOCCNc6cccc7c6C(=O)N(C6CCC(=O)NC6=O)C7=O)CC5)ccc4c3)c2c1 (stereo not shown) [HV5958, 4-[2-[6-[4-[3-[2-[2-[[2-(2,6-dioxo-3-piperidyl)-1,3-dioxo-isoindolin-4-yl]amino]ethoxy]ethoxy]propanoyl]piperazine-1-carbonyl]-2-naphthyl]ethylamino]quinoline-6-carbonitrile]	27%	–	–

More lines, main results first:

% CDK8 remaining	induction of CDK8 degradation by single agents (HEK-293, HP8580 200 nM and 1 μM, pomalidomide 5 μM, Senexin C 5 μM)	SMILES	effect of co-treatment on HP8580-mediated CDK8 degradation (HEK-293, with MG132 5 μM, pomalidomide 5 μM or Senexin C 5 μM)
69%	–	Cc1ncsc1-c1ccc(CNC(=O)[C@@H]2C[C@@H](O)CN2C(=O)[C@@H](NC(=O)CCCCCCCCC(=O)N2CCN(C(=O)c3ccc4cc(CCNc5ccnc6ccc(C#N)cc56)ccc4c3)CC2)C(C)(C)C)cc1 (racemic) [IA7862, rac-(2S,4R)-4-hydroxy-N-[[4-(4-methylthiazol-5-yl)phenyl]methyl]-1-[rac-(2S)-2-[[10-[4-[6-[2-[(6-cyano-4-quinolyl)amino]ethyl]naphthalene-2-carbonyl]piperazin-1-yl]-10-oxo-decanoyl]amino]-3,3-dimethyl-butanoyl]pyrrolidine-2-carboxamide]	–
100%	–	CN1C(=O)CCC(N2C(=O)c3cccc(NCCOCCOCCOCCOCCC(=O)N4CCN(C(=O)c5ccc6cc(CCNc7ccnc8ccc(C#N)cc78)ccc6c5)CC4)c3C2=O)C1=O (stereo not shown) [IA7803, 4-[2-[6-[4-[3-[2-[2-[2-[2-[[2-(1-methyl-2,6-dioxo-3-piperidyl)-1,3-dioxo-isoindolin-4-yl]amino]ethoxy]ethoxy]ethoxy]ethoxy]propanoyl]piperazine-1-carbonyl]-2-naphthyl]ethylamino]quinoline-6-carbonitrile]	–
100%	–	Cc1ncsc1-c1ccc(CNC(=O)[C@@H]2C[C@@H](O)CN2C(=O)[C@@H](NC(=O)CCOCCOCCOCCOCCC(=O)N2CCN(C(=O)c3ccc4cc(CCNc5ccnc6ccc(C#N)cc56)ccc4c3)CC2)C(C)(C)C)cc1 [IA7807, (2S,4R)-1-((S)-2-(tert-butyl)-19-(4-(6-(2-((6-cyanoquinolin-4-yl)amino)ethyl)-2-naphthoyl)piperazin-1-yl)-4,19-dioxo-7,10,13,16-tetraoxa-3-azanonadecanoyl)-4-hydroxy-N-(4-(4-methylthiazol-5-yl)benzyl) pyrrolidine-2-carboxamide]	–
29%	–	N#Cc1ccc2nccc(NCCc3ccc4cc(C(=O)N5CCN(C(=O)CCOCCOCCOCCOCCOCCNc6cccc7c6C(=O)N(C6CCC(=O)NC6=O)C7=O)CC5)ccc4c3)c2c1 (stereo not shown) [IA7812, 4-[2-[6-[4-[3-[2-[2-[2-[2-[2-[[2-(2,6-dioxo-3-piperidyl)-1,3-dioxo-isoindolin-4-yl]amino]ethoxy]ethoxy]ethoxy]ethoxy]ethoxy]propanoyl]piperazine-1-carbonyl]-2-naphthyl]ethylamino]quinoline-6-carbonitrile]	–
28%	–	N#Cc1ccc2nccc(NCCc3ccc4cc(C(=O)N5CCN(C(=O)CCOCCOCCOCCOCCOCCOCCNc6cccc7c6C(=O)N(C6CCC(=O)NC6=O)C7=O)CC5)ccc4c3)c2c1 (stereo not shown) [IA7813, 4-[2-[6-[4-[3-[2-[2-[2-[2-[2-[2-[[2-(2,6-dioxo-3-piperidyl)-1,3-dioxo-isoindolin-4-yl]amino]ethoxy]ethoxy]ethoxy]ethoxy]ethoxy]ethoxy]propanoyl]piperazine-1-carbonyl]-2-naphthyl]ethylamino]quinoline-6-carbonitrile]	–
59%	–	CN(CCCNC(=O)CCOCCOCCOCCOCCOCCOCCNc1cccc2c1C(=O)N(C1CCC(=O)NC1=O)C2=O)C(=O)c1ccc(N2CCCN(c3ccnc4sc(C(N)=O)c(N)c34)CC2)cc1 (stereo not shown) [IA7814, 3-amino-4-[4-[4-[3-[3-[2-[2-[2-[2-[2-[2-[[2-(2,6-dioxo-3-piperidyl)-1,3-dioxo-isoindolin-4-yl]amino]ethoxy]ethoxy]ethoxy]ethoxy]ethoxy]ethoxy]propanoylamino]propyl-methyl-carbamoyl]phenyl]-1,4-diazepan-1-yl]thieno[2,3-b]pyridine-2-carboxamide]	–
66%	–	N#Cc1ccc2nccc(NCCc3ccc4cc(C(=O)N5CCN(C(=O)CCNC(=O)CCOCCOCCOCCNc6cccc7c6C(=O)N(C6CCC(=O)NC6=O)C7=O)CC5)ccc4c3)c2c1 (stereo not shown) [IA7819, N-[3-[4-[6-[2-[(6-cyano-4-quinolyl)amino]ethyl]naphthalene-2-carbonyl]piperazin-1-yl]-3-oxo-propyl]-3-[2-[2-[2-[[2-(2,6-dioxo-3-piperidyl)-1,3-dioxo-isoindolin-4-yl]amino]ethoxy]ethoxy]ethoxy]propanamide]	–
65%	–	N#Cc1ccc2nccc(NCCc3ccc4cc(C(=O)N5CCN(C(=O)CCNC(=O)CCOCCOCCOCCOCCNc6cccc7c6C(=O)N(C6CCC(=O)NC6=O)C7=O)CC5)ccc4c3)c2c1 (stereo not shown) [IA7822, N-[3-[4-[6-[2-[(6-cyano-4-quinolyl)amino]ethyl]naphthalene-2-carbonyl]piperazin-1-yl]-3-oxo-propyl]-3-[2-[2-[2-[2-[[2-(2,6-dioxo-3-piperidyl)-1,3-dioxo-isoindolin-4-yl]amino]ethoxy]ethoxy]ethoxy]ethoxy]propanamide]	–
65%	–	N#Cc1ccc2nccc(NCCc3ccc4cc(C(=O)N5CCN(C(=O)CCOCCOCCOCCNC(=O)CCNc6cccc7c6C(=O)N(C6CCC(=O)NC6=O)C7=O)CC5)ccc4c3)c2c1 (stereo not shown) [IA7830, N-[2-[2-[2-[3-[4-[6-[2-[(6-cyano-4-quinolyl)amino]ethyl]naphthalene-2-carbonyl]piperazin-1-yl]-3-oxo-propoxy]ethoxy]ethoxy]ethyl]-3-[[2-(2,6-dioxo-3-piperidyl)-1,3-dioxo-isoindolin-4-yl]amino]propanamide]	–
